System: 966289-007-R4-J1-PDC complex spheroid viability
Assay: Anticancer human tumor 966289-007-R4-J1-PDC patient-derived pancreatic adenocarcinoma cell line growth inhibition [RAS]
Settings: for IC50: curve of first compound; for viability, T/C: stronger effect = lower value
Summary of the method: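 Tumour cells grown as complex spheroids with HUVEC endothelial cells and mesenchymal stem cells, treated with RAS pathway inhibitor combinations. Each agent spans half-log steps from near clinical Cmax, or 10 microM where Cmax is unknown.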
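Note: spheroids exposed to agents for one week before readout.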
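Throughout, for viability, T/C: percent viability relative to DMSO vehicle control wells as 100%.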

SMILES: CC1(C)CCC(Nc2ncc(C(F)(F)F)c(-c3c[nH]c4c(P(C)(C)=O)c(C#N)ccc34)n2)CN1 (stereo unspecified) + CCn1c(-c2cc(N3CCN(C)CC3)cnc2C(C)OC)c2c3cc(ccc31)-c1csc(n1)CC(NC(=O)C1CC1C)C(=O)N1CCCC(N1)C(=O)OCC(C)(C)C2
- IC50 (second compound 0.000949 µM): 6.91 nM
- IC50 (second compound 0.003 µM): 6.78 nM
- IC50 (second compound 0.00949 µM): 6.97 nM
- IC50 (second compound 0.03 µM): 7.53 nM
- IC50 (second compound 0.0949 µM): 7.39 nM
- IC50 (second compound 0.3 µM): 6.14 nM
- viability, T/C (second compound 0.000949 µM, first compound 0.000949 µM): 124%
- viability, T/C (second compound 0.000949 µM, first compound 0.003 µM): 104%
- viability, T/C (second compound 0.000949 µM, first compound 0.00949 µM): 29%
- viability, T/C (second compound 0.000949 µM, first compound 0.03 µM): 14.5%
- viability, T/C (second compound 0.000949 µM, first compound 0.0949 µM): 8.71%
- viability, T/C (second compound 0.000949 µM, first compound 0.3 µM): 9.97%
- viability, T/C (second compound 0.003 µM, first compound 0.000949 µM): 134%
- viability, T/C (second compound 0.003 µM, first compound 0.003 µM): 99.9%
- viability, T/C (second compound 0.003 µM, first compound 0.00949 µM): 29.9%
- viability, T/C (second compound 0.003 µM, first compound 0.03 µM): 8.54%
- viability, T/C (second compound 0.003 µM, first compound 0.0949 µM): 10.7%
- viability, T/C (second compound 0.003 µM, first compound 0.3 µM): 9.36%
- viability, T/C (second compound 0.00949 µM, first compound 0.000949 µM): 130%
- viability, T/C (second compound 0.00949 µM, first compound 0.003 µM): 116%
- viability, T/C (second compound 0.00949 µM, first compound 0.00949 µM): 26%
- viability, T/C (second compound 0.00949 µM, first compound 0.03 µM): 14.3%
- viability, T/C (second compound 0.00949 µM, first compound 0.0949 µM): 12.3%
- viability, T/C (second compound 0.00949 µM, first compound 0.3 µM): 11.2%
- viability, T/C (second compound 0.03 µM, first compound 0.000949 µM): 113%
- viability, T/C (second compound 0.03 µM, first compound 0.003 µM): 115%
- viability, T/C (second compound 0.03 µM, first compound 0.00949 µM): 34%
- viability, T/C (second compound 0.03 µM, first compound 0.03 µM): 16.7%
- viability, T/C (second compound 0.03 µM, first compound 0.0949 µM): 12.3%
- viability, T/C (second compound 0.03 µM, first compound 0.3 µM): 10.1%
- viability, T/C (second compound 0.0949 µM, first compound 0.000949 µM): 122%
- viability, T/C (second compound 0.0949 µM, first compound 0.003 µM): 139%
- viability, T/C (second compound 0.0949 µM, first compound 0.00949 µM): 27.6%
- viability, T/C (second compound 0.0949 µM, first compound 0.03 µM): 12.7%
- viability, T/C (second compound 0.0949 µM, first compound 0.0949 µM): 13.7%
- viability, T/C (second compound 0.0949 µM, first compound 0.3 µM): 9.77%
- viability, T/C (second compound 0.3 µM, first compound 0.000949 µM): 128%
- viability, T/C (second compound 0.3 µM, first compound 0.003 µM): 86.9%
- viability, T/C (second compound 0.3 µM, first compound 0.00949 µM): 27.7%
- viability, T/C (second compound 0.3 µM, first compound 0.03 µM): 12.8%
- viability, T/C (second compound 0.3 µM, first compound 0.0949 µM): 12.7%
- viability, T/C (second compound 0.3 µM, first compound 0.3 µM): 11.7%

SMILES: Cc1nc(N2CCC3(CC2)COC(C)C3N)c(CO)nc1Sc1ccnc(N)c1Cl (stereo unspecified) + C#Cc1c(F)ccc2cc(O)cc(-c3ncc4c(N5CC6CCC(C5)N6)nc(OCC56CCCN5CC(F)C6)nc4c3F)c12
- IC50 (second compound 0.0316 µM): > 10000 nM
- IC50 (second compound 0.1 µM): > 10000 nM
- IC50 (second compound 0.316 µM): > 10000 nM
- IC50 (second compound 1 µM): > 10000 nM
- IC50 (second compound 3.16 µM): > 10000 nM
- IC50 (second compound 10 µM): > 10000 nM
- viability, T/C (second compound 0.0316 µM, first compound 0.0316 µM): 107%
- viability, T/C (second compound 0.0316 µM, first compound 0.1 µM): 92.5%
- viability, T/C (second compound 0.0316 µM, first compound 0.316 µM): 111%
- viability, T/C (second compound 0.0316 µM, first compound 1 µM): 80.5%
- viability, T/C (second compound 0.0316 µM, first compound 3.16 µM): 102%
- viability, T/C (second compound 0.0316 µM, first compound 10 µM): 92%
- viability, T/C (second compound 0.1 µM, first compound 0.0316 µM): 107%
- viability, T/C (second compound 0.1 µM, first compound 0.1 µM): 94.7%
- viability, T/C (second compound 0.1 µM, first compound 0.316 µM): 103%
- viability, T/C (second compound 0.1 µM, first compound 1 µM): 92.6%
- viability, T/C (second compound 0.1 µM, first compound 3.16 µM): 95.1%
- viability, T/C (second compound 0.1 µM, first compound 10 µM): 90.9%
- viability, T/C (second compound 0.316 µM, first compound 0.0316 µM): 91%
- viability, T/C (second compound 0.316 µM, first compound 0.1 µM): 114%
- viability, T/C (second compound 0.316 µM, first compound 0.316 µM): 115%
- viability, T/C (second compound 0.316 µM, first compound 1 µM): 115%
- viability, T/C (second compound 0.316 µM, first compound 3.16 µM): 93.5%
- viability, T/C (second compound 0.316 µM, first compound 10 µM): 91.5%
- viability, T/C (second compound 1 µM, first compound 0.0316 µM): 93.1%
- viability, T/C (second compound 1 µM, first compound 0.1 µM): 112%
- viability, T/C (second compound 1 µM, first compound 0.316 µM): 113%
- viability, T/C (second compound 1 µM, first compound 1 µM): 107%
- viability, T/C (second compound 1 µM, first compound 3.16 µM): 97.8%
- viability, T/C (second compound 1 µM, first compound 10 µM): 87.3%
- viability, T/C (second compound 3.16 µM, first compound 0.0316 µM): 104%
- viability, T/C (second compound 3.16 µM, first compound 0.1 µM): 104%
- viability, T/C (second compound 3.16 µM, first compound 0.316 µM): 113%
- viability, T/C (second compound 3.16 µM, first compound 1 µM): 88.8%
- viability, T/C (second compound 3.16 µM, first compound 3.16 µM): 88.2%
- viability, T/C (second compound 3.16 µM, first compound 10 µM): 98%
- viability, T/C (second compound 10 µM, first compound 0.0316 µM): 91.8%
- viability, T/C (second compound 10 µM, first compound 0.1 µM): 97.1%
- viability, T/C (second compound 10 µM, first compound 0.316 µM): 100%
- viability, T/C (second compound 10 µM, first compound 1 µM): 89.8%
- viability, T/C (second compound 10 µM, first compound 3.16 µM): 95.2%
- viability, T/C (second compound 10 µM, first compound 10 µM): 85.5%

SMILES: CCN1CCN(Cc2ccc(Nc3ncc(F)c(-c4cc(F)c5nc(C)n(C(C)C)c5c4)n3)nc2)CC1 + CCn1c(-c2cc(N3CCN(C)CC3)cnc2C(C)OC)c2c3cc(ccc31)-c1csc(n1)CC(NC(=O)C1CC1C)C(=O)N1CCCC(N1)C(=O)OCC(C)(C)C2
- IC50 (second compound 0.000949 µM): > 1000 nM
- IC50 (second compound 0.003 µM): > 1000 nM
- IC50 (second compound 0.00949 µM): > 1000 nM
- IC50 (second compound 0.03 µM): > 1000 nM
- IC50 (second compound 0.0949 µM): > 1000 nM
- IC50 (second compound 0.3 µM): > 1000 nM
- viability, T/C (second compound 0.000949 µM, first compound 0.00316 µM): 122%
- viability, T/C (second compound 0.000949 µM, first compound 0.01 µM): 116%
- viability, T/C (second compound 0.000949 µM, first compound 0.0316 µM): 130%
- viability, T/C (second compound 0.000949 µM, first compound 0.1 µM): 86.2%
- viability, T/C (second compound 0.000949 µM, first compound 0.316 µM): 92.2%
- viability, T/C (second compound 0.000949 µM, first compound 1 µM): 89.8%
- viability, T/C (second compound 0.003 µM, first compound 0.00316 µM): 109%
- viability, T/C (second compound 0.003 µM, first compound 0.01 µM): 121%
- viability, T/C (second compound 0.003 µM, first compound 0.0316 µM): 112%
- viability, T/C (second compound 0.003 µM, first compound 0.1 µM): 95.7%
- viability, T/C (second compound 0.003 µM, first compound 0.316 µM): 114%
- viability, T/C (second compound 0.003 µM, first compound 1 µM): 85%
- viability, T/C (second compound 0.00949 µM, first compound 0.00316 µM): 93.9%
- viability, T/C (second compound 0.00949 µM, first compound 0.01 µM): 116%
- viability, T/C (second compound 0.00949 µM, first compound 0.0316 µM): 120%
- viability, T/C (second compound 0.00949 µM, first compound 0.1 µM): 97.7%
- viability, T/C (second compound 0.00949 µM, first compound 0.316 µM): 98.7%
- viability, T/C (second compound 0.00949 µM, first compound 1 µM): 96.7%
- viability, T/C (second compound 0.03 µM, first compound 0.00316 µM): 85.3%
- viability, T/C (second compound 0.03 µM, first compound 0.01 µM): 105%
- viability, T/C (second compound 0.03 µM, first compound 0.0316 µM): 129%
- viability, T/C (second compound 0.03 µM, first compound 0.1 µM): 95%
- viability, T/C (second compound 0.03 µM, first compound 0.316 µM): 97.8%
- viability, T/C (second compound 0.03 µM, first compound 1 µM): 85.1%
- viability, T/C (second compound 0.0949 µM, first compound 0.00316 µM): 129%
- viability, T/C (second compound 0.0949 µM, first compound 0.01 µM): 100%
- viability, T/C (second compound 0.0949 µM, first compound 0.0316 µM): 115%
- viability, T/C (second compound 0.0949 µM, first compound 0.1 µM): 95.9%
- viability, T/C (second compound 0.0949 µM, first compound 0.316 µM): 86.9%
- viability, T/C (second compound 0.0949 µM, first compound 1 µM): 88.6%
- viability, T/C (second compound 0.3 µM, first compound 0.00316 µM): 101%
- viability, T/C (second compound 0.3 µM, first compound 0.01 µM): 89.8%
- viability, T/C (second compound 0.3 µM, first compound 0.0316 µM): 114%
- viability, T/C (second compound 0.3 µM, first compound 0.1 µM): 111%
- viability, T/C (second compound 0.3 µM, first compound 0.316 µM): 97.9%
- viability, T/C (second compound 0.3 µM, first compound 1 µM): 79%
